According to PubChem BioAssay AID1949 (Southern Research Institute, 2009):
Converted amounts (≈) assume the structure as drawn. Records with an inconclusive call do not appear. The source made the active and inactive calls. How the calls were made is not given here.

Test system: M. tuberculosis H37Rv growth inhibition
Test: Mycobacterium tuberculosis H37Rv growth inhibition, cell based, confirmatory dose response (AID 1949);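 further: bacteria grown 7 days with compound before Alamar blue readout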

Row | SMILES | IC50
1 | CC(C)(C)c1ccc(-c2nn3c(Cc4ccccc4)nnc3s2)cc1 | > 50 µg/mL (inactive)
2 | O=C(c1cccc([N+](=O)[O-])c1)N1N=C(c2ccc(Br)cc2)CC1(O)C(F)(F)F (configuration not stated) | 2.13 µg/mL (≈ 4.65 µM)
3 | O=[N+]([O-])c1ccc(NCCNc2nc(N3CCCC3)nc3ccccc23)cc1 | 1.06 µg/mL (≈ 2.8 µM)
4 | c1ccc(COc2ccc3ccccc3c2CNCc2cccnc2)cc1 | 7.91 µg/mL (≈ 22.3 µM)
5 | O=C(CCNc1cccc(Cl)c1)c1ccco1 | 3.68 µg/mL (≈ 14.7 µM)
6 | CCOC(=O)COc1ccc2c3c(c(=O)oc2c1)CCCCC3 | 2.73 µg/mL (≈ 8.63 µM)
7 | CC(C)C1C(c2ccccc2)NC(c2ccccc2)CC1(O)c1ccc(F)cc1 (configuration not stated) | 10.1 µg/mL (≈ 25.9 µM)
8 | Cc1ccccc1OCCCCn1cnc2ccccc21 | 6.34 µg/mL (≈ 22.6 µM)
9 | Cc1cc(C)cc(COc2ccc3c(C)c(CCC(=O)O)c(=O)oc3c2C)c1 | 0.32 µg/mL (≈ 0.841 µM)
10 | Cc1ccc(C(=O)CCNc2ccc(F)cc2)cc1 | > 50 µg/mL (inactive)
11 | O=C(OCc1nnc(-c2ccccc2)o1)c1cc(-c2cccs2)nc2ccccc12 | 3.03 µg/mL (≈ 7.33 µM)
12 | Cc1cccnc1NC(=S)Nc1ccc(Cl)c(Cl)c1 | 8.34 µg/mL (≈ 26.7 µM)
13 | N#Cc1ccccc1NC(=O)CSc1nc2cc3ccccc3cc2[nH]1 | 2.68 µg/mL (≈ 7.48 µM)
14 | CCOC(=O)COc1ccc2c(=O)c(-c3ccccc3Cl)c(C)oc2c1C | 0.98 µg/mL (≈ 2.53 µM)
15 | Cc1ccc(-c2nn(-c3cc(N4CCN(C)CC4)ccc3[N+](=O)[O-])c(=O)c3ccccc23)cc1 | 8.15 µg/mL (≈ 17.9 µM)
16 | COC(=O)COc1ccc(NC(=O)COc2ccc(C(C)(C)C)cc2)cc1 | 0.17 µg/mL (≈ 0.458 µM)
17 | CCC(=O)c1ccc(OCC(O)CN2CCN(c3ccc(C)cc3C)CC2)cc1 (configuration not stated) | > 50 µg/mL (inactive)
18 | COc1ccccc1C(=O)Nc1ccc2oc(-c3cccc(Cl)c3)nc2c1 | > 50 µg/mL (inactive)
19 | COc1ccc(Nc2sc(C(=O)C34CC5CC(CC(C5)C3)C4)c(N)c2C#N)cc1 | 12.1 µg/mL (≈ 29.6 µM)

Row | SMILES | IC50
20 | CC(C)c1ccc(OCC(=O)NNC(=S)NC(=O)c2ccco2)c(Br)c1 | 0.25 µg/mL (≈ 0.568 µM)
21 | COC(=O)COc1ccc2c(-c3cccc([N+](=O)[O-])c3)cc(=O)oc2c1 | 0.34 µg/mL (≈ 0.957 µM)
22 | CC(=O)C1=C(C)NC(SCC(=O)Nc2nc3ccccc3s2)=C(C#N)C1c1ccc(Cl)cc1 (configuration not stated) | 4.1 µg/mL (≈ 8.28 µM)
23 | Cc1nc(SCC(=O)N2CCC(C)CC2)c2c3c(sc2n1)CCC3 | > 50 µg/mL (inactive)
24 | O=C(Nc1ccncc1)c1ccc2nc(-c3ccccc3)c(-c3ccccc3)nc2c1 | 4.64 µg/mL (≈ 11.5 µM)
25 | COc1cc(/C=C/[N+](=O)[O-])cc(Cl)c1OCc1ccccc1C#N | 17.9 µg/mL (≈ 51.8 µM)
26 | COC(=O)c1ccc2c(=O)n(-c3ccccc3)c(SCc3ccccc3)nc2c1 | 22.6 µg/mL (≈ 56.2 µM)
27 | COc1ccc(OCC(=O)NNC(=S)NC(=O)C(C)(C)C)cc1 | 0.13 µg/mL (≈ 0.383 µM)
28 | Clc1ccc(OCCCNCc2ccccc2)c2ccccc12 | 1.36 µg/mL (≈ 4.17 µM)
29 | O=C(OCc1ccccn1)c1ccc(COc2cccc3ccccc23)cc1 | 6.98 µg/mL (≈ 18.9 µM)
30 | Cc1cnc(NC(=O)CSc2ccc(Cl)cc2)s1 | 1.67 µg/mL (≈ 5.59 µM)
31 | Cc1cc(C)c2c(c1)c(-c1ccccc1)c(-c1ccccc1)n2CC(O)CN1CCN(CCO)CC1 (configuration not stated) | 3.02 µg/mL (≈ 6.24 µM)
32 | Cn1nc([N+](=O)[O-])nc1Oc1ccc(C(C)(C)C)cc1 | < 0.1 µg/mL
33 | CCOc1ccc2nc3cc(N)ccc3c(N)c2c1 | 0.81 µg/mL (≈ 3.2 µM)
34 | Cc1ccc(-c2nnc(SCC(=O)Nc3ccc([N+](=O)[O-])cc3)o2)cc1 | > 50 µg/mL (inactive)
35 | Oc1ccc(/C=C/c2nc(-c3ccccc3O)n(-c3ccccc3)n2)cc1 | 5.63 µg/mL (≈ 15.8 µM)
36 | CCN1CCN(c2ccc(NC(=O)c3cc4ccccc4cc3OC)cc2Cl)CC1 | 23.9 µg/mL (≈ 56.5 µM)
37 | CC1CCCCC1NC(=O)CSc1nc2ccccc2c(=O)[nH]1 (configuration not stated) | 18.4 µg/mL (≈ 55.5 µM)
38 | CCCOc1ccc(Nc2cc(C)nc3ccc(Cl)cc23)cc1 | 0.74 µg/mL (≈ 2.26 µM)

Row | SMILES | IC50
39 | O=Cc1c(Nc2ccccc2)nc2ccccn2c1=O | 6.7 µg/mL (≈ 25.3 µM)
40 | CCSCC(=O)N1CCN(c2nnc(-c3ccccc3)c3ccccc23)CC1 | 14.5 µg/mL (≈ 36.9 µM)
41 | CCCCCn1c(NCc2ccc(N(C)C)cc2)nc2ccccc21 | 2.9 µg/mL (≈ 8.62 µM)
42 | O=C(NC(=S)Nc1cccc(C(F)(F)F)c1)c1cccs1 | 2.39 µg/mL (≈ 7.23 µM)
43 | O=C(NCCCn1ccnc1)c1cc(-c2ccc(Br)cc2)nc2ccccc12 | 9.43 µg/mL (≈ 21.7 µM)
44 | O=S1(=O)C=CC2ON=C(c3c(Cl)cccc3Cl)C21 (configuration not stated) | 10.8 µg/mL (≈ 35.6 µM)
45 | COC(=O)COc1ccc2c(=O)c(-c3ccc(Cl)cc3)coc2c1 | 0.99 µg/mL (≈ 2.87 µM)
46 | COc1cc(CNC23CC4CC(CC(C4)C2)C3)ccc1OCc1ccccc1 | > 50 µg/mL (inactive)
47 | Cn1nnnc1Sc1ccc([N+](=O)[O-])c2ncccc12 | > 50 µg/mL (inactive)
48 | COc1ccc(C(=O)NC(=S)Nc2ccc([N+](=O)[O-])cc2O)cc1Br | < 0.1 µg/mL
49 | Cc1c(OC(=O)c2ccccc2Cl)ccc2c1CCCC2 | 2.51 µg/mL (≈ 8.34 µM)
50 | COc1ccc(-c2cc(C(=O)N/N=C/C=C/c3ccccc3OC)[nH]n2)cc1 | < 0.1 µg/mL
51 | O=[N+]([O-])/C=C/c1c[nH]c2ccc(Br)cc12 | 8.61 µg/mL (≈ 32.2 µM)
52 | Cc1ccc(C(=O)N2CCN(c3ccc(NC(=O)COc4ccccc4Cl)cc3)CC2)cc1 | 6.08 µg/mL (≈ 13.1 µM)
53 | CC1CCN(c2nc(-c3cccnc3)nc3ccccc23)CC1 | > 50 µg/mL (inactive)
54 | COc1ccc(Cc2nn3c(-c4ccccc4)nnc3s2)cc1 | 0.63 µg/mL (≈ 1.95 µM)
55 | CC(Nc1nc(N2CCN(C(=O)c3ccc(Cl)cc3)CC2)nc2ccccc12)c1ccccc1 (configuration not stated) | 2.7 µg/mL (≈ 5.72 µM)
56 | O=C(C1CCCN1S(=O)(=O)c1ccc(Cl)cc1)N1CCOCC1 (configuration not stated) | 20 µg/mL (≈ 55.7 µM)
57 | O=C(CSc1nnc(-c2ccncc2)o1)Nc1ccc(Cl)cn1 | 5.59 µg/mL (≈ 16.1 µM)
